How the values were obtained:
[1] = Measurement of particle diameter distribution (laser diffraction, dry measurement, Mastersizer 2000); type: physicochemical; settings: for Particle Diameter Distribution D50 / Particle Diameter Distribution D90: dry measurement, volume basis
Procedure: In the present invention, D50 and D90 are indices for defining particle diameter distribution. Particle diameter distribution is usually called particle size distribution. Particles are divided into groups along with their size with appropriate intervals, and weight (volume) or particle number of the particles belonging to each group is measured to obtain the particle number (frequency) of each group. Taking the particle number (frequency) along the ordinate and taking the particle diameter along the abscissa, a particle diameter distribution is shown as a histogram, frequency curve, cumulative curve or the like. In the present invention, frequency was calculated based on volume. In the particle diameter distribution obtained in such a manner, D50 means the particle diameter at the point where the volume which is cumulatively measured from smaller particles reaches 50%, that is, the point where the cumulative frequency of the volume distribution reaches 50%. D90 means the particle diameter at the point where the volume which is cumulatively measured from smaller particles reaches 90%, that is, the point where the cumulative frequency of the volume distribution reaches 90%. Cumulative frequency (%) of particles which have a smaller diameter than a specified particle diameter can also be calculated from such a distribution chart.
Measurement of the particle diameter distribution of the crystalline finely-ground particles according to the present invention may be carried out with a commercially available apparatus using laser diffraction/scattering based on Mie Theory. For example, the measurement is carried out using a commercially available apparatus such as Malvern (registered trademark) Mastersizer Laser Diffraction Analyzer (Malvern Instruments Ltd). This analyzer irradiates He—Ne laser beam and blue light-emitting diode on particles to obtain a light scattering pattern which occurs on a detector by the irradiation, and then analyzes the light scattering pattern according to Mie Theory to determine the particle diameter distribution. […] An example of the measurement condition is as follows, which was used in Evaluation 1 of the present invention.
• Apparatus: Laser diffraction-based particle size distribution analyzer Mastersizer 2000 (Malvern) • Dry measurement unit: Scircco 2000 • Refractive Index of Samples: Real part; 1.810, Imaginary part; 0 • Time for Sample Measurement: 1 second • Time for Background Measurement: 5 seconds • Pressure: 2.0 bar • Feed Rate: 40% • Analysis Model: Single narrow mode • Calculation Sensitivity Enhanced • Particle Shape Irregular • Analysis Range: 0.020 to 2000 μm • Basis of Size Distribution Measurement: Volume
The particle diameter distribution of the subject compound was measured by dry measurement using a particle size distribution analyzer (Mastersizer 2000, manufactured by Malvern). D50 and D90 were calculated as an index of the particle diameter distribution.

[2] = Check of crystalline state and measurement of degree of crystallinity by powder X-ray diffraction; type: physicochemical; settings: powder X-ray diffraction, Xc=(Sc/(Sc+Sa))×100
Procedure: The degree of crystallinity of the crystalline finely-ground particles according to the present invention is calculated from the integrated intensity ratio of crystalline peaks and amorphous halo which are extracted from an X-ray diffraction pattern obtained by powder X-ray diffraction measurement.
The powder X-ray diffraction measurement may be carried out by using, for example, a powder X-ray diffractometer (2200/RINT Ultima+PC) manufactured by Rigaku as described in Evaluation 2 of the present invention. In preparation of a measurement sample, 100 mg of a sample material is filled in a glass sample plate (0.2 mm depth) in non-destructive condition, and the surface of the sample material is leveled out using a glass plate to obtain a measurement sample. An example of the measurement condition is as follows, which was used in the present invention.
The degree of crystallinity may be calculated by a known analysis method using diffraction patterns of a sample material and sample plate alone (without a sample material) and a difference pattern thereof. For example, using a powder X-ray diffraction pattern analysis software JADE5.0 produced by MDI, which is a commercially available analysis software, a degree of crystallinity may be calculated as follows.
• (1) A difference pattern of the diffraction patterns of a sample material and sample plate alone is smoothed (Savitzky-Goray filter: 19 points). • (2) For a display area of the difference pattern, the x-axis: diffraction angle (2θ) is set between 2 deg and 90 deg, and the y-axis: diffraction intensity (Counts) is set between 0 and 500. • (3) Points are set at diffraction angles of […], 65 and 90 deg, respectively, and a straight line parallel to the x-axis is drawn such that the line is contact with the difference diffraction pattern at a range of 65 deg to 90 deg. The area below the line is determined as a background. • (4) The background is subtracted. • (5) An integrated intensity at a range of 4 deg to 60 deg is calculated (which corresponds to a sum of the integrated intensity of crystalline peaks and an amorphous halo: Sc+Sa) • (6) Points are set at diffraction angles of 2, 7, 18, 26, 30, 35, 59, 65 and 90 deg, respectively. At 2, 65 and 90 deg, the diffraction intensity is set as 0, and at 7, 18, 26, 30, 35 and 59 deg, an approximation by a cubic spline is made such that the approximation formula is in contact with the difference pattern obtained after the subtraction of the background, thereby estimating an amorphous halo. • (7) The amorphous halo is subtracted. • (8) The integrated intensity at a range of 4 deg to 60 deg is calculated (which corresponds to the integrated intensity of the crystalline peaks: Sc). • (9) A degree of crystallinity is calculated according to the following equation. Xc=(Sc/(Sc+Sa))×100 Equation • Xc: Degree of crystallinity (%) • Sc: Integrated intensity of the crystalline peaks • Sa: Integrated intensity of the amorphous halo
For check of the crystalline state and measurement of the degree of crystallinity, powder X-ray diffraction measurement was carried out using a powder X-ray diffraction analyzer (2200/RINT Ultima+PC) manufactured by Rigaku.

[3] = Plasma concentration of drugs when administered to dogs; type: in vivo; settings: oral 10 mg/kg, 3 male beagle dogs
Procedure: The pharmaceutical active substances with a different particle diameter distribution (Example 2 and Comparative Example 2) were orally administered (10 mg/kg) to 3 male beagle dogs, and blood samples were collected at each time points to measure the drug concentration in plasma.

[4] = Storage stability (2): total amount of related substances by HPLC, 60° C./75% RH opened; type: physicochemical
Procedure: For comparison of storage stability, the ground pharmaceutical active substance of Comparative Example 4 (grinding for 3 min), Comparative Example 5 (grinding for 6 min) and Comparative Example 6 (grinding for 7 min), all of which were ground with Table Ball Mill (model V-2M: manufactured by Irie Shokai), were left under the storage condition of 60° C./75% RH opened, and the total amount of related substances was analyzed by HPLC 0.5 and 2 months after the start of the storage (Table 7).

SMILES	Cumulative Frequency of Volume Distribution Which Is Occupied by Particles with Volume-Based Particle Diameter 15 (μm) or Less [1] [%]	Particle Diameter Distribution D50 [1] [μm]	Particle Diameter Distribution D90 [1] [μm]	Degree of Crystallinity [2] [%]	Drug Plasma Concentration AUC 0-24 h, Average (Standard Deviation) [3]	Drug Plasma Concentration C max, Average (Standard Deviation) [3]	Total Amount of Related Substances ([4]; 60° C./75% RH opened, 0.5-Month Later) [%]	Total Amount of Related Substances ([4]; 60° C./75% RH opened, 2-Month Later) [%]	Total Amount of Related Substances ([4]; At Start of Storage) [%]
O=C1c2ccccc2C(=O)N1[C@@H]1CC[C@@]2(O)[C@H]3Cc4ccc(O)c5c4[C@@]2(CCN3CC2CC2)[C@H]1O5 [Example 2, N-(17-cyclopropylmethyl-4,5α-epoxy-3,14-dihydroxy-morphinan-6β-yl)-phthalimide]	96.3	6.23	12.4	89	180.3 (40.9) ng · hr/mL	18.4 (7.2) ng/mL	–	–	–
O=C1c2ccccc2C(=O)N1[C@@H]1CC[C@@]2(O)[C@H]3Cc4ccc(O)c5c4[C@@]2(CCN3CC2CC2)[C@H]1O5 [Comparative Example 2, N-(17-Cyclopropylmethyl-4,5α-epoxy-3,14-dihydroxy-morphinan-6β-yl)-phthalimide]	9.4	64.0	173	93	44.5 (25.4) ng · hr/mL	4.8 (1.8) ng/mL	–	–	–
O=C1c2ccccc2C(=O)N1[C@@H]1CC[C@@]2(O)[C@H]3Cc4ccc(O)c5c4[C@@]2(CCN3CC2CC2)[C@H]1O5 [Comparative Example 5, N-(17-cyclopropylmethyl-4,5α-epoxy-3,14-dihydroxy-morphinan-6β-yl)-phthalimide]	–	19.2	246	71	–	–	0.61	1.07	0.24
